Earlier results as cited in patent US20260174646A1, “Topical detergent composition comprising ascorbyl glucoside and ascorbyl palmitat” (Mitochon S.r.l., priority 2022, published 2026).

In the case of `CCCCCCCCCCCCCCCC(=O)OC[C@H](O)[C@H]1OC(=O)C(O)=C1O` [ascorbyl palmitate, Ascorbyl palmitate], the “ability to release ascorbic acid into the epidermis” value (refs. [8,9]) is listed as “reduced ability to release ascorbic acid into the epidermis” and the “tissue levels of ascorbic acid when applied to the skin” value (topical application, ref. [7]) is listed as “incapable of increasing tissue levels of ascorbic acid”.
